Experimental findings from patent US10231956B2, “3-(1H-pyrrolo[3,2-C]pyridin-2-YL)-1 H-pyrazolo[4,3-B]pyridines and therapeutic uses thereof” (Samumed, LLC, priority 2015, dated 2019) are described below.

Common to all, as to type: cell-based
Assay [1] has as its system Wnt activity (Sp5-Luc reporter, SW480 colon carcinoma cells). The assay can be described thus: Sp5-Luc reporter gene screening assay for Wnt activity in SW480 cells. As to conditions: Homo sapiens, luminescence, overnight incubation. An excerpt: The screening assay for Wnt activity is described as follows. Reporter cell lines can be generated by stably transducing cancer cell lines (e.g., colon cancer) or primary cells (e.g., IEC-6 intestinal cells) with a lentiviral construct that includes a Wnt-responsive promoter driving expression of the firefly luciferase gene.
SW480 colon carcinoma cells were transduced with a lentiviral vector expressing luciferase with a human Sp5 promoter consisting of a sequence of eight TCF/LEF binding sites. SW480 cells stably expressing the Sp5-Luc reporter gene and a hygromycin resistance gene were selected by treatment with 150 μg/mL of hygromycin for 7 days. These stably transduced SW480 cells were expanded in cell culture and used for all further screening activities. Each compound was dissolved in DMSO as a 10 mM stock and used to prepare compound source plates. Serial dilution (1:3, 10-point dose-response curves starting from 10 μM) and compound transfer was performed using the ECHO 550 (Labcyte, Sunnyvale, Calif.) into 384-well white solid bottom assay plates (Greiner Bio-One) with appropriate DMSO backfill for a final DMSO concentration of 0.1%. For Sp5-Luc reporter gene assays, the cells were plated at 4,000 cells/well in 384-well plates with medium containing 1% fetal bovine serum and incubated overnight at 37° C. and 5% CO2. Following incubation, 20 μl of BrightGlo luminescence reagent (Promega) was added to each well of the 384-well assay plates. The plates were placed on an orbital shaker for 2 min and then luminescence was quantified using the Envision (Perkin Elmer) plate reader. Readings were normalized to DMSO only treated cells, and normalized activities were utilized for EC50 calculations using the dose-response log (inhibitor) vs. response-variable slope (four parameters) nonlinear regression feature available in GraphPad Prism 5.0 (or Dotmatics). For EC50 of >10 μM, the percent inhibition at 10 μM is provided.
(In general: A reporter such as luciferase makes a cellular process visible.)

The test system of assay [2] is SW480 colon cancer cells. The assay can be described thus: Cell viability assay (CellTiter-Blue) in SW480 colon cancer cells. The note with it: Homo sapiens, 96 h, four days, CellTiter-Blue. How it is done: Representative compounds were screened using the following assay procedure to assess the effect on cell viability as described below.
Each compound was dissolved in DMSO as a 10 mM stock and used to prepare compound source plates. Serial dilution (1:3, 8-point dose-response curves from 10 μM to 0.0045 μM) and compound transfer was performed using the ECHO 550 (Labcyte, Sunnyvale, Calif.) into 96-well clear bottom, black-walled plates (Corning-Costar).
Approximately 2×10^3 SW480 colon cancer cells were seeded into each well and allowed to incubate in the presence or absence of compound for four days at 37° C./5% CO2. Eight replicates of DMSO-treated cells served as controls and cells treated with compound were performed in duplicate.
After incubation, 20 μL of CellTiter-Blue (Promega) was added to each well allowed to incubate for approximately 3 hours. This reagent was a buffered solution which contains resazurin, metabolically active cells were able to reduce rezarurin (blue) into resorufin (pink) which was highly fluorescent. This measured fluorescence was used as a readout for cell viability.
After incubation, the plates were read at Ex 560 nm Em 590 nm (Cytation 3, BioTek). Dose-response curves were generated and EC50 concentration values were calculated using non-linear regression curve fit in the GraphPad Prism (San Diego, Calif.) or Dotmatics' Studies Software (Bishops Stortford, UK). For EC50 of >10 μM, the percent inhibition at 10 μM is provided.

The test system of assay [3] is primary human fibroblasts derived from IPF patients (LL29 cells). The experiment in a line: Inhibition of fibrotic process: αSMA staining in TGF-β1 treated LL29 fibroblasts. As to conditions: Fibroblast, 96 h, TGF-β1 20 ng/mL, 4 days, % cells positive for αSMA. An excerpt:
Representative compounds were screened using primary human fibroblasts (derived from IPF patients) treated with TGF-β1 to determine their ability to inhibit the fibrotic process.
Human Fibroblast Cell Culture: Primary human fibroblasts derived from IPF patients (LL29 cells) [^1Xiaoqiu Liu, et. al., “Fibrotic Lung Fibroblasts Show Blunted Inhibition by cAMP Due to Deficient cAMP Response Element-Binding Protein Phosphorylation”, Journal of Pharmacology and Experimental Therapeutics (2005), 315(2), 678-687; ^2Watts, K. L., et. al., “RhoA signaling modulates cyclin D1 expression in human lung fibroblasts; implications for idiopathic pulmonary fibrosis”, Respiratory Research (2006), 7(1), 88] were obtained from American Type Culture Collection (ATCC) and expanded in F12 medium supplemented with 15% Fetal Bovine Serum and Penicillin/Streptomycin.
Compound Screening: Each compound was dissolved in DMSO as a 10 mM stock and used to prepare compound source plates. Serial dilution (1:2, 11-point dose-response curves from […]) and compound transfer was performed using the ECHO 550 (Labcyte, Sunnyvale, Calif.) into 384-well clear bottom assay plates (Greiner Bio-One) with appropriate DMSO backfill for a final DMSO concentration of 0.1%. LL29 cells are plated at 1,500 cells/well in 80 μL/well F12 medium supplemented with 1% Fetal Bovine Serum. One hour after addition of the cells, TGF-β1 (Peprotech; 20 ng/mL) was added to the plates to induce fibrosis (ref. 1 and 2 above). Wells treated with TGF-β1 and containing DMSO were used as controls. Cells were incubated at 37° C. and 5% CO2 for 4 days. Following incubation for 4 days, SYTOX green nucleic acid stain (Life Technologies [Thermo Fisher Scientific]) was added to the wells at a final concentration of 1 μM and incubated at room temperature for 30 min. Cells were then fixed using 4% formaldehyde (Electron Microscopy Sciences), washed 3 times with PBS followed by blocking and permeabilization using 3% Bovine Serum Albumin (BSA; Sigma) and 0.3% Triton X-100 (Sigma) in PBS. Cells were then stained with antibody specific to α-smooth muscle actin (αSMA; Abcam) (ref. 1 and 2 above) in 3% Bovine Serum Albumin (BSA; Sigma) and 0.3% Triton X-100 (Sigma) in PBS, and incubated overnight at 4° C. Cells were then washed 3 times with PBS, followed by incubation with Alexa Flor-647 conjugated secondary antibody (Life Technologies [Thermo Fisher Scientific]) and DAPI at room temperature for 1 hour. Cells were then washed 3 times with PBS and plates were sealed for imaging. αSMA staining was imaged by excitation at 630 nm and emission at 665 nm and quantified using the Compartmental Analysis program on the CellInsight CX5 (Thermo Scientific). Dead or apoptotic cells were excluded from analysis based on positive SYTOX green staining. % of total cells positive for αSMA were counted in each well and normalized to the average of 11 wells treated with TGF-β1 on the same plate using Dotmatics' Studies Software. The normalized averages (fold change over untreated) of 3 replicate wells for each compound concentration were used to create dose-responses curves and EC50 values were calculated using non-linear regression curve fit in the Dotmatics' Studies Software. For EC50 of >10 μM, the percent inhibition at 10 μM is provided.

For assay [4], the system named is IL-6. The experiment in a line: IL-6 inhibition in LPS-stimulated THP-1 cells (HTRF). The note with it: Homo sapiens, LPS 500 ng/mL, 22 hours, IL6 HTRF. On the procedure: Human Monocyte Cell Culture: Human monocyte cell line (THP-1 cells; Catalog # TIB-202, ATCC, Manassas, Va.) were cultured in Roswell Park Memorial Institute (RPMI) 1640 Medium (Catalog #21870-100, Buffalo, N.Y.) with 1% L-glutamine, 1% HEPES, 1% Sodium Pyruvate, 2% Sodium Bicarbonate supplemented with 100 units/mL penicillin, 50 μg/mL streptomycin, 2-mercaptoethanol (0.05 mM) [basal medium] and 10% fetal bovine serum (Catalog #16140089, Life Technologies, Carlsbad, Calif.) at 37° C. and 5% CO2.
Compound Screening: THP-1 cells were cultured in basal media with 1% FBS for 24 hours before the start of the assay. Each compound was dissolved in DMSO as a 10 mM stock and used to prepare compound source plates. Serial dilution (1:3, 10-point dose-response curves starting from 1 μM) and compound transfer was performed using the ECHO 550 (Labcyte, Sunnyvale, Calif.) into 384-well white low volume assay plates (Greiner Bio-One) with appropriate DMSO backfill for a final DMSO concentration of 0.1%. THP-1 cells were plated at 5000 cells/well in the 384-well plates and incubated at 37° C. for 2 h. 500 ng/mL of LPS was added after 2 hours and cells were incubated for another 22 hours at 37° C. Plates were spun in a centrifuge for 1 minute at 10,000 rpm and a mixture of anti-IL6 XL665, and anti-IL6 Cryptate diluted in reconstitution buffer (Cisbio Inc.) was added to each well. Following incubation for 3 hrs at room temperature, Homogeneous Time-Resolved Fluorescence (HTRF) was measured using the Envision (Perkin Elmer) at 665 nm and […]. The ratio of fluorescence at 665 nm to 620 nm was used as a readout for IL6 quantification. All samples were processed in duplicate. Readings were normalized to DMSO treated cells and normalized activities were utilized for EC50 calculations using the dose-response log (inhibitor) vs. response-variable slope (four parameters) nonlinear regression feature available in GraphPad Prism 5.0 (or Dotmatics). For EC50 of >10 μM, the percent inhibition at 10 μM is provided.
In general terms: In TR-FRET formats the signal depends on donor and acceptor labels being close together.

As to `CC(C)(C)C(=O)Nc1cncc(-c2ccc3[nH]nc(-c4cc5c(-c6cccc(F)c6)nccc5[nH]4)c3n2)c1` [Compound 8, N-(5-(3-(4-(3-Fluorophenyl)-1H-pyrrolo[3,2-c]pyridin-2-yl)-1H-pyrazolo [4,3-b]pyridin-5-yl)pyridin-3-yl)pivalamide], the EC50 in assay [1] is 4860 nM; in assay [2], 2620 nM; in assay [3], 1080 nM; in assay [4] it was 118 nM.
For `Fc1ccc(-c2nccc3[nH]c(-c4n[nH]c5ccc(-c6ccccn6)nc45)cc23)cc1` [Compound 56, 3-(4-(4-Fluorophenyl)-1H-pyrrolo[3,2-c]pyridin-2-yl)-5-(pyridin-2-yl)-1H-pyrazolo[4,3-b]pyridine] the same measures were 3470 nM, 2590 nM, 1310 nM and 7700 nM.
On to `O=C(Nc1cncc(-c2ccc3[nH]nc(-c4cc5c(-c6cccnc6)nccc5[nH]4)c3n2)c1)C1CCCC1` [Compound 106, N-(5-(3-(4-(Pyridin-3-yl)-1H-pyrrolo[3,2-c]pyridin-2-yl)-1H-pyrazolo[4,3-b]pyridin-5-yl)pyridin-3-yl)cyclopentanecarboxamide], for which the EC50 came to 716 nM in assay [1], 737 nM in assay [2], 1320 nM in assay [3] and 88 nM in assay [4].
In the same order, the values of `c1cc(-c2nccc3[nH]c(-c4n[nH]c5ccc(-c6cncc(CNCC7CCCC7)c6)nc45)cc23)ccn1` [Compound 137, 1-Cyclopentyl-N-((5-(3-(4-(pyridin-4-yl)-1H-pyrrolo[3,2-c]pyridin-2-yl)-1H-pyrazolo[4,3-b]pyridin-5-yl)pyridin-3-yl)methyl)methanamine] are 4490 nM, 1660 nM, 3240 nM and 9200 nM.
As to `CN1CCN(c2nccc3[nH]c(-c4n[nH]c5ccc(-c6cncc(NC(=O)CC(C)(C)C)c6)nc45)cc23)CC1` [Compound 240, 3,3-Dimethyl-N-(5-(3-(4-(4-methylpiperazin-1l-yl)-1H-pyrrolo[3,2-c]pyridin-2-yl)-1H-pyrazolo[4,3-b]pyridin-5-yl)pyridin-3-yl)butanamide], the EC50 in assay [1] came out at 3510 nM; in assay [2], 3570 nM; in assay [3] it was 1010 nM; in assay [4], 418 nM.
As to `c1cc2[nH]c(-c3n[nH]c4ccc(-c5cncc(CNCC6CCCC6)c5)nc34)cc2c(-c2ccoc2)n1` [Compound 333, 1-Cyclopentyl-N-((5-(3-(4-(furan-3-yl)-1H-pyrrolo[3,2-c]pyridin-2-yl)-1H-pyrazolo[4,3-b]pyridin-5-yl)pyridin-3-yl)methyl)methanamine], the EC50 in assay [1] turned out to be 3710 nM; in assay [2], 1190 nM; in assay [3], 714 nM; in assay [4], 9070 nM.
In the same order, the values of `Cc1ccncc1-c1ccc2[nH]nc(-c3cc4c(-c5cccs5)nccc4[nH]3)c2n1` [Compound 341, 5-(4-Methylpyridin-3-yl)-3-(4-(thiophen-2-yl)-1H-pyrrolo[3,2-c]pyridin-2-yl)-1H-pyrazolo[4,3-b]pyridine] are 1100 nM, 577 nM, 621 nM and 5380 nM.
In the same order, the values of `c1csc(-c2nccc3[nH]c(-c4n[nH]c5ccc(-c6cncnc6)nc45)cc23)c1` [Compound 363, 5-(Pyrimidin-5-yl)-3-(4-(thiophen-2-yl)-1H-pyrrolo[3,2-c]pyridin-2-yl)-1H-pyrazolo[4,3-b]pyridine] are 2680 nM, 1520 nM, 529 nM and 2750 nM.
Regarding `Fc1cccc(-c2nccc3[nH]c(-c4n[nH]c5ccc(C6CCNCC6)nc45)cc23)c1` [Compound 505, 3-(4-(3-Fluorophenyl)-1H-pyrrolo[3,2-c]pyridin-2-yl)-5-(piperidin-4-yl)-1H-pyrazolo[4,3-b]pyridine], the EC50 in assay [1] was 8320 nM; in assay [2] it was 4120 nM; in assay [3], 2710 nM; in assay [4], 1520 nM.

The EC50 is the concentration that produces a half-maximal response. Low values mean greater potency, high ones weaker potency.
